Measurements: patent publication US5382582A, “Methotrexate analogs and methods of using same” (priority 1993, dated 1995)

How the values were obtained:
[1] = test system: human leukemia cell line K562; experiment: Growth inhibition of myelogenous leukemia cells (cell counts, 120 h continuous exposure); assay type: cell-based; conditions: for IC50: Homo sapiens, K562 Cells, 120 hours continuous exposure
Experimental: (§1) Two suspensious human leukemia cell lines were employed in this study. The myelogenous leukemia cell line K562 was cultured in RPMI 1640 (JRH Biosciences) containing 10% filtered fetal bovine serum (FBS; Irvine Scientific), and the lymphoblastic leukemia cell line CCRF/CEM was cultured in RPMI 1640 containing 20% FBS, 100 U/ml penicillin (GIBCO Laboratories, Grand Island, NY), and 100 μg/ml streptomycin (GIBCO). Cells were maintained at 37° C. with 5% CO2 in air, and were cultured using standard sterile tissue culture technique.
(§2) Prior to toxicity studies, cells were maintained 48 hours in the absence of added inhibitor. Logarithmically growing cells were inoculated at 1×10^4 cells/ml in tissue culture grade petri dishes (35×10 mm), and, following a suitable recovery period, were treated with chemical agents. Inhibitor concentrations ranging from 10^-12 to 10^-4 M were added to the cultures except for a control culture, which contained no added drug. Cell counts were performed by hematometer counting during 120 hours of continuous exposure to the drugs. The IC50 value was obtained by interpolation from graphs of percent growth inhibition plotted against drug concentration.

[2] = In vivo pharmacokinetics: 7-OH-MTX formed from drug in rabbit plasma; parameters: species or system New Zealand White rabbit; conditions: i.v., as compared with MTX
Experimental: A male New Zealand White rabbit was cannulated through the middle ear artery. A single bolus 16.7 mg/kg dose of drug was administered into the ear vein, and 1.0 ml blood samples were withdrawn from the cannulated artery into heparinized tubes at 0, 5, 15, 30, 45, 60, 75 and 90 minutes following drug administration. Plasma was separated from the samples by centrifugation at 1000 rpm, and was kept frozen until analysis.
HPLC analysis was performed as in Example 5, with the exception that the mobile phase was 0.1 M monobasic sodium phosphate and 0.1 M Tris-HCl in 20% methanol at a final pH of 6.7. p-Aminoacetophenone (10 μg/ml in water) was used as an internal standard.
Pharmacokinetic parameters were determined by the method of residual, a standard pharmacokinetic technique for resolving a curve into its various exponential components.
Thus tmax was calculated according to the formula:
tmax =2.3 log (ka /kc)/[…]

[3] = test system: human leukemia cell line CCRF/CEM; experiment: Growth inhibition of lymphoblastic leukemia cells (cell counts, 120 h continuous exposure); assay type: cell-based
Experimental: as §1, §2

[4] = Tomcuf, J. Organic Chem., 26, 3351 (1961); cited from earlier work
[5] = high dose regimen; Barak et al. (1984); cited from earlier work
[6] = Half-life in rabbit liver homogenate
Experimental: (§3) For these experiments, freshly isolated liver from a New Zealand white rabbit was homogenized in 400 ml of cold buffer of pH 7.6 consisting of 10 mM Tris-HCl, 25 mM sucrose and 10 mMMgCl2. The homogenate was centrifuged at 1000× g for 20 minutes at 4° C. and the resulting pellet was resuspended in about 14 ml of the same buffer. […] Two ml samples of the homogenate were removed at 10 minute intervals. Samples were boiled 5 minutes to denature proteins, and then centrifuged to pellet cell debris. […] For HPLC analysis, a Perkin-Elmer 410 LC solvent delivery system and a 5-μm IBM ODS column (4.1×250 mm) with a C18 Guard column were employed. […] Detector output was recorded and integrated by a Perkin-Elmer LCI 100 integrator.

[7] = Formation of 7-OH-MTX (7-hydroxylation) in rabbit liver homogenate; conditions: as compared with MTX
Experimental: as §3, with “employed. The mobile phase consisted of 0.1 M monobasic sodium phosphate and 0.1 M Tris-HCl in 27% methanol at a final pH of 7.6.” for “employed.”

[8] = Rosowsky and Chen, J. Med. Chem., 18, 1308-11 (1974); cited from earlier work
[9] = man and monkeys; Borsi et al. (1990), Jacobs et al. (1976); cited from earlier work

In the case of `[2H]c1nc2nc(N)nc(N)c2nc1C([2H])([2H])N(C)c1ccc(C(=O)N[C@@H](CCC(=O)O)C(=O)O)cc1` (racemic) [7,9,9-d3 -MTX, N-[p-[N-(2,4-diamino-7-deutero-6-pteridinyldideuteromethyl)-N-methylamino]benzoyl]glutamic acid], the IC50 [1] is reported as 0.04 µM, the “IC50 compared with IC50 of MTX” value ([1]; K562 and CCRF/CEM cells, D,L-racemate) is reported as “greater than the IC50 values obtained for MTX” and the “Peak level of 7-OH-MTX less than that obtained from MTX by” value [2] is reported as “about 70%”. The “Time to achieve 7-OH-MTX peak level as compared to that of MTX” value [2] was “more than twice as long” and the IC50 [3] was 0.048 µM.
For `CN(Cc1cnc2nc(N)nc(N)c2n1)c1c(F)cc(C(=O)N[C@@H](CCC(=O)O)C(=O)O)cc1F` [3', 5'-difluoro MTX], the “Biological activity as compared with MTX” value [4] is given as “little or no increase in biological activity as compared with MTX”.
In the case of `CN(Cc1nc2c(N)nc(N)nc2nc1O)c1ccc(C(=O)N[C@@H](CCC(=O)O)C(=O)O)cc1` [7-OH-MTX, 7-hydroxymethotrexate], the “Toxicity” value [5] is given as “the source of this toxicity”.
With `[2H]c1nc2nc(N)nc(N)c2nc1CN(C)c1ccc(C(=O)N[C@@H](CCC(=O)O)C(=O)O)cc1` [7-d-MTX, N-{p-[N-(2,4-diamino-7-deutero-6-pterridinylmethyl)-N-methylamino]benzoyl}-L -glutamic acid] the IC50 [1] was 0.006 µM, the “IC50 lower than IC50 of MTX by” value ([1]; K562 and CCRF/CEM cells, as compared with MTX) was 15-25% and the “Half-life greater than half-life for MTX by” value ([6]; rabbit liver homogenate, as compared with MTX) was “about 60%”. For the same compound, the IC50 [3] was 0.0095 µM and the “Less 7-OH-MTX formed per unit time than from MTX” value [7] was “about 70%”.
In the case of `Cc1nc2nc(N)nc(N)c2nc1CN(C)c1ccc(C(=O)N[C@@H](CCC(=O)O)C(=O)O)cc1` [7-methyl substituted MTX], the “Antifolate antagonism” value [8] is given as “impaired antifolate antagonism”.
With `CN(Cc1cnc2nc(N)nc(N)c2n1)c1ccc(C(=O)N[C@@H](CCC(=O)O)C(=O)O)cc1` [MTX, N-[4-[[(2,4-diamino-6pteridinyl)methyl]methylamino]benzoyl]-L-glutamicacid, reference compound] the IC50 [1] was 0.008 µM, the Half-Life ([6]; rabbit, liver homogenate, pH 7.6) was 28.2 min and the IC50 [3] was 0.0113 µM. For the same compound, the “Conversion in vivo to 7-OH-MTX” value [9] was “converted in vivo to 7-hydroxymethotrexate (7-OH-MTX)” and the “Toxicity” value [5] was “associated with renal and hepatic toxicity”.
